US7914891B2, “Wipes including microencapsulated delivery vehicles and phase change materials” (Kimberly-Clark Worldwide, Inc., priority 2005, dated 2011)
Read-outs that look alike come from different tables or passages of the source.

How the values were obtained:
[1] = 35 wt % in mineral oil, added to 7.0 grams de-ionized water
Protocol: All five samples were then individually added to 7.0 grams de-ionized water and the resulting temperature rise was measured using a Barnant Scanning Thermocouple (available from Therm-X of California, Hayward, Calif.).
All four samples were then added to 7.0 grams de-ionized water and the resulting temperature rise was measured using a J type Thermocouple (available from Omega Engineering, Inc., Stamford, Conn.).

[2] = tested on: Methicillin-resistant Staphylococcus aureus; conditions: 22° C. compared to 50° C.; 0.005% active PHMB
Protocol: This Example utilized 1.5-milliliter tubes containing a 1-milliliter blend of phosphate-buffered saline (pH 7.2) and 5% (w/v) bovine serum albumin soil. The tubes were placed in electric heat blocks set for 22° C., 30° C., 40° C. and 50° C., respectively. The tubes remained in the electric heat blocks for approximately 10 minutes.
After 10 minutes, 0.005% (by weight) active polyhexamehtylene biguanide (PHMB) (commercially available as Cosmocil® CQ from Arch Biocides, Inc., United Kingdom) was added to two tubes at each temperature level. Duplicate tubes without PHMB at each temperature were also made.
The tubes were then vortexed and Methicillin-resistant Staphylococcus aureus (approximately 1×10^5 colony forming units (CFU)) was then added to each tube. All of the tubes were then placed back into the heat blocks at their respective temperatures.
Following a 10-minute contact time, 0.1 milliliters of each sample was transferred to 0.9 milliliters letheen broth to neutralize the PHMB activity. The letheen samples were then plated in duplicate on Tryptic Soy agar plates using a WASP2 spiral plater (commercially available from Don Whitley Scientific, Ltd., Yorkshire, United Kingdom). The plates were inverted and incubated at 37±2° C. for 48 hours.
After 48 hours, the plates were evaluated using a total plate count to determine the biocidal efficacy of each sample.

[3] = Heat generation after soaking in de-ionized water; type: physicochemical; conditions: in 7.0 grams de-ionized water; coated samples crushed after 0.5 to 2.0 hours
Protocol: To analyze the samples for heat generation, 0.80 grams of each sample of calcium chloride including a moisture protective layer was added to four separate vials each containing 7.0 grams of de-ionized water and 0.73 grams of the control sample was added to a fifth vial containing 7.0 grams of de-ionized water. Using a J type thermocouple (commercially available from Omega Engineering, Inc., Stamford, Conn.) and a data logger, the temperature of the samples was measured over a period of 180 seconds. The four vials containing the samples of microencapsulated heat delivery vehicle including a moisture protective layer were allowed to remain in the de-ionized water for 0.5 hours, 1.0 hour, 1.5 hours, and 2.0 hours, respectively, at which time the samples were activated by crushing the samples by hand using a metal rod. The temperature of the water in the four vials was measured for a period of 180 seconds after crushing the samples.

Molecule: [Cl-].[Cl-].[Mg+2] [anhydrous magnesium chloride, magnesium chloride]
- rate of heat generation ([1]; particle size less than 250 micrometers vs three other size ranges): generated heat at the highest rate

Molecule: polyhexamethylene biguanide [PHMB]
- LOG10 difference in efficacy [2]: greater than 1.4 LOG10

Molecule: [Ca+2].[Cl-].[Cl-] [anhydrous calcium chloride, calcium chloride]
- rate of heat generation ([1]; particle size 149-355 micrometers vs four other size ranges): generated heat at the highest rate

Molecule: [Ca+2].[Cl-].[Cl-] [Example 11 control sample, calcium chloride]
- heat generation after contact with water [3]: produced heat immediately upon being introduced into water but only for a short period of time
